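Step 1: Grow cells in 96-well plates. Step 2: Expose to compound for 48 hours at 5 concentrations. Step 3: Interpolate endpoints linearly; if unreached, use highest concentration. GI50 = concentration required for 50% inhibition of growth.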 Active and inactive are the calls of the source. No stated cut-off is given here; in the data, active = GI50 up to about 1.1 µM and inactive = higher.
Experiments:
Assay in all cases: growth of human tumour cells (NCI), 48 h
[1] = tested on: T47D
[2] = tested on: DU-145
[3] = tested on: OVCAR-5
[4] = tested on: SK-MEL-2
[5] = tested on: ACHN
[6] = tested on: KM12
[7] = tested on: UACC-257
[8] = tested on: OVCAR-3
[9] = tested on: SF-268
[10] = tested on: UO-31
[11] = tested on: NCI-H226
[12] = tested on: MOLT-4
[13] = tested on: RPMI-8226
[14] = tested on: Hs-578T
[15] = tested on: TK-10
[16] = tested on: EKVX
[17] = tested on: A549
[18] = tested on: NCI-H460
[19] = tested on: HOP-62
[20] = tested on: CCRF-CEM

Row | SMILES | GI50 [1] | GI50 [2] | GI50 [3] | GI50 [4] | GI50 [5] | GI50 [6] | GI50 [7] | GI50 [8] | GI50 [9] | GI50 [10] | GI50 [11] | GI50 [12] | GI50 [13] | GI50 [14] | GI50 [15] | GI50 [16] | GI50 [17] | GI50 [18] | GI50 [19] | GI50 [20]
1 | NC(=O)c1ncn(C2CCC(CP(=O)(O)O)C2)c1N (stereo unspecified) | > 100 µM (inactive) | > 100 µM (inactive) | > 100 µM (inactive) | > 100 µM (inactive) | > 100 µM (inactive) | > 100 µM (inactive) | > 100 µM (inactive) | > 100 µM (inactive) | > 100 µM (inactive) | > 100 µM (inactive) | > 100 µM (inactive) | > 100 µM (inactive) | > 100 µM (inactive) | > 100 µM (inactive) | > 100 µM (inactive) | > 100 µM (inactive) | > 100 µM (inactive) | > 100 µM (inactive) | > 100 µM (inactive) | 
2 | CCc1ccc(Nc2cc(=O)[nH]c(SCc3ccccc3)n2)cc1 | > 100 µM (inactive) | > 100 µM (inactive) | > 100 µM (inactive) | > 100 µM (inactive) | 50.7 µM (inactive) | > 100 µM (inactive) | > 100 µM (inactive) | 39.4 µM (inactive) | 73.1 µM (inactive) | > 100 µM (inactive) | > 100 µM (inactive) | > 100 µM (inactive) | > 100 µM (inactive) | > 100 µM (inactive) | > 100 µM (inactive) | 57.7 µM (inactive) | > 100 µM (inactive) |  | 32.5 µM (inactive) | > 100 µM (inactive)
3 | COc1cccc2c1OC1(C=C2)Oc2ccccc2C(=O)N1C (stereo unspecified) | 31.9 µM (inactive) | 34 µM (inactive) | 78.3 µM (inactive) | 54.5 µM (inactive) | 35.2 µM (inactive) | 19.1 µM (inactive) | 44.8 µM (inactive) | 37.8 µM (inactive) | 34.3 µM (inactive) | 19.8 µM (inactive) | 20.9 µM (inactive) | 15.7 µM (inactive) | 27.9 µM (inactive) | 21.5 µM (inactive) | 24.9 µM (inactive) | 18.4 µM (inactive) | 41.6 µM (inactive) | 32.4 µM (inactive) | 51.5 µM (inactive) | 12.2 µM (inactive)
4 | CCOC(=O)CON=c1c2ccccc2ccc2ccccc12 | > 100 µM (inactive) | > 100 µM (inactive) | > 100 µM (inactive) | > 100 µM (inactive) | > 100 µM (inactive) | > 100 µM (inactive) | > 100 µM (inactive) | > 100 µM (inactive) | > 100 µM (inactive) | > 100 µM (inactive) | > 100 µM (inactive) | > 100 µM (inactive) | > 100 µM (inactive) | > 100 µM (inactive) | > 100 µM (inactive) | > 100 µM (inactive) | > 100 µM (inactive) | > 100 µM (inactive) | > 100 µM (inactive) | > 100 µM (inactive)
5 | CC1=C[C@H](C[C@]2(C)c3c(c4c(C)cccc4oc3=O)O[C@@H]2C)OC1=O | 50.8 µM (inactive) | > 100 µM (inactive) | > 100 µM (inactive) | > 100 µM (inactive) | > 100 µM (inactive) | > 100 µM (inactive) | > 100 µM (inactive) | 37 µM (inactive) | 24.4 µM (inactive) | 32.5 µM (inactive) | > 100 µM (inactive) | 21.1 µM (inactive) | 0.0778 µM (active) | 63.1 µM (inactive) | > 100 µM (inactive) | > 100 µM (inactive) | > 100 µM (inactive) | > 100 µM (inactive) | > 100 µM (inactive) | 19.3 µM (inactive)
6 | O=C(C(=O)N1CCc2ccccc21)c1c[nH]c2ccccc12 | > 10 µM (inactive) | > 10 µM (inactive) | > 10 µM (inactive) | > 10 µM (inactive) | > 10 µM (inactive) | > 10 µM (inactive) | > 10 µM (inactive) | > 10 µM (inactive) | > 10 µM (inactive) | > 10 µM (inactive) | > 10 µM (inactive) | > 10 µM (inactive) | > 10 µM (inactive) | > 10 µM (inactive) | > 10 µM (inactive) | > 10 µM (inactive) | > 10 µM (inactive) | > 10 µM (inactive) | > 10 µM (inactive) | > 10 µM (inactive)
7 | Cc1c2oc(=O)c(C#N)cc2c2ccccn12 | > 100 µM (inactive) | > 100 µM (inactive) | > 100 µM (inactive) | > 100 µM (inactive) | > 100 µM (inactive) | 27.6 µM (inactive) | > 100 µM (inactive) | 17.3 µM (inactive) | > 100 µM (inactive) | 60.7 µM (inactive) | > 100 µM (inactive) | > 100 µM (inactive) | > 100 µM (inactive) | > 100 µM (inactive) | > 100 µM (inactive) | > 100 µM (inactive) | > 100 µM (inactive) | 32.5 µM (inactive) |  | > 100 µM (inactive)
8 | CC(C)(Cl)C(Br)CCC(Br)(CCl)C(Cl)CBr (stereo unspecified) | > 10 µM (inactive) | > 10 µM (inactive) | > 10 µM (inactive) | > 10 µM (inactive) | > 10 µM (inactive) | > 10 µM (inactive) | > 10 µM (inactive) | > 10 µM (inactive) |  | > 10 µM (inactive) | > 10 µM (inactive) | > 10 µM (inactive) | > 10 µM (inactive) | > 10 µM (inactive) | > 10 µM (inactive) | > 10 µM (inactive) |  | > 10 µM (inactive) | > 10 µM (inactive) | > 10 µM (inactive)
9 | C/C(=C1/N=C(c2ccccc2)OC1=O)c1cccs1 | > 100 µM (inactive) | > 100 µM (inactive) | > 100 µM (inactive) | > 100 µM (inactive) | > 100 µM (inactive) | > 100 µM (inactive) | > 100 µM (inactive) | > 100 µM (inactive) | > 100 µM (inactive) |  | > 100 µM (inactive) | > 100 µM (inactive) | > 100 µM (inactive) | 73.5 µM (inactive) | > 100 µM (inactive) | > 100 µM (inactive) | 64.7 µM (inactive) | > 100 µM (inactive) | 55 µM (inactive) | > 100 µM (inactive)
10 | COC(=O)C(=O)C(C(=O)C(=O)Nc1ccccc1C(N)=O)c1nc2ccc(Cl)cc2nc1O (stereo unspecified) | > 100 µM (inactive) | > 100 µM (inactive) | > 100 µM (inactive) | > 100 µM (inactive) | > 100 µM (inactive) | > 100 µM (inactive) | > 100 µM (inactive) | > 100 µM (inactive) | > 100 µM (inactive) | > 100 µM (inactive) | > 100 µM (inactive) | > 100 µM (inactive) | > 100 µM (inactive) | 46.5 µM (inactive) |  |  | > 100 µM (inactive) | > 100 µM (inactive) |  | > 100 µM (inactive)
11 | COc1cc2cc(C(=O)N3CC(COS(C)(=O)=O)c4ccc(O)cc43)[nH]c2c(OC)c1OC (stereo unspecified) | 0.000552 µM (active) | < 0.0001 µM (active) | 0.000536 µM (active) | < 0.0001 µM (active) | < 0.0001 µM (active) | 0.000169 µM (active) | 0.000537 µM (active) | < 0.0001 µM (active) | < 0.0001 µM (active) | < 0.0001 µM (active) | 0.000109 µM (active) | < 0.0001 µM (active) | < 0.0001 µM (active) | 0.000168 µM (active) | 0.000301 µM (active) | 0.00082 µM (active) | < 0.0001 µM (active) |  | < 0.0001 µM (active) | < 0.01 µM (active)
12 | CCCN1C(=O)CN(S(=O)(=O)c2ccc(Cl)cc2)C1=O | > 100 µM (inactive) | > 100 µM (inactive) | > 100 µM (inactive) | > 100 µM (inactive) | > 100 µM (inactive) | > 100 µM (inactive) | > 100 µM (inactive) | > 100 µM (inactive) | > 100 µM (inactive) | > 100 µM (inactive) | > 100 µM (inactive) |  | > 100 µM (inactive) | > 100 µM (inactive) | > 100 µM (inactive) | > 100 µM (inactive) | > 100 µM (inactive) | > 100 µM (inactive) | > 100 µM (inactive) | > 100 µM (inactive)
13 | CCCCCCCCCCCCCCCCP(=O)(O)OCC(N)C(=O)O (stereo unspecified) | > 100 µM (inactive) | > 100 µM (inactive) | 21.1 µM (inactive) | 26.4 µM (inactive) | 22.3 µM (inactive) | 20.3 µM (inactive) | > 100 µM (inactive) | 23.6 µM (inactive) | 27.7 µM (inactive) | 16 µM (inactive) | 25.5 µM (inactive) | 17.3 µM (inactive) | 21 µM (inactive) | 54 µM (inactive) |  | > 100 µM (inactive) | 46.2 µM (inactive) | 22.8 µM (inactive) | 23.4 µM (inactive) | 33.5 µM (inactive)
14 | O=C1Cc2c([nH]c3c(Br)cccc23)-c2ccccc2N1 | > 100 µM (inactive) | > 100 µM (inactive) | > 100 µM (inactive) | > 100 µM (inactive) | > 100 µM (inactive) | 60 µM (inactive) | > 100 µM (inactive) | > 100 µM (inactive) | 77.1 µM (inactive) | 37.9 µM (inactive) | > 100 µM (inactive) | 16.4 µM (inactive) | 32.5 µM (inactive) | 63.5 µM (inactive) |  | > 100 µM (inactive) | > 100 µM (inactive) | 45.9 µM (inactive) | 37.1 µM (inactive) | 16.4 µM (inactive)
15 | COCn1cnc2c(=O)nc(SC)n(-c3ccccc3)c21 | > 100 µM (inactive) | > 100 µM (inactive) | > 100 µM (inactive) | > 100 µM (inactive) | > 100 µM (inactive) | > 100 µM (inactive) | > 100 µM (inactive) | > 100 µM (inactive) | > 100 µM (inactive) | > 100 µM (inactive) | > 100 µM (inactive) | > 100 µM (inactive) | > 100 µM (inactive) | > 100 µM (inactive) | > 100 µM (inactive) | > 100 µM (inactive) | > 100 µM (inactive) |  | > 100 µM (inactive) | > 100 µM (inactive)
